In US20030124616A1, “Homocysteinylated transthyretin” (priority 2001, published 2003):

Columns and labels:
albumin = biological target: T1, albumin (Homo sapiens, UniProt P02768); test: Binding of 35S-L-homocysteine and 35S-L-cysteine to plasma proteins (SDS-PAGE, phosphorimaging); settings: 500 μmol/L, plasma diluted 1:1 with TES buffer
T1 construct: from tissue; host or cells: human plasma
Protocol: (§1) ^35S-L-homocysteine (500 μmol/L final concentration) was added to either human plasma fibronectin (1 mg/mL, 0.05 mol/L TES buffer, pH 7.4) or human plasma diluted 1:1 with 0.05 mol/L TES buffer, pH 7.4 and incubated under aerobic conditions for 5 hours at 37° C. with continuous shaking. Separate samples of human plasma and fibronectin were incubated with ^35S-L-cysteine (1,000 Ci/mmol) (New England Nuclear, Boston, Mass.) which was first diluted with cold L-cysteine (in 1 mol/L TES buffer, pH 7.4) to obtain a specific activity equal to that of the synthesized ^35S-L-homocysteine. The final concentrations of L-cysteine and TES in the reaction mixture was 500 μmol/L and 0.05 mol/L respectively and the incubation was carried out as described above for L-homocysteine. The bound radioactive homocysteine was detected by SDS-PAGE of the samples followed by phosphorimage analysis (Molecular Dynamics Inc., Sunnyvale, Calif.).
(§2) Samples were combined with SDS-PAGE sample buffer (62.5 mmol/L Tris-HCl, pH 6.8, 2% SDS, 10% glycerol, 0.02% bromophenol blue) and aliquots of some samples were reduced with 2-mercaptoethanol and heated to 100° C. for 5 minutes. The samples were loaded onto 4-20% precast gradient gels (Z Axis, Hudson, Ohio) and electrophoresed using the method of Laemmli. […]

human plasma fibronectin [1] = test: Binding of 35S-L-homocysteine and 35S-L-cysteine to fibronectin (SDS-PAGE, phosphorimaging); settings: 500 μmol/L, 5 hours at 37° C.
Protocol: as §1, §2

human plasma fibronectin [2] = test: Stoichiometry of 35S-L-homocysteine binding to fibronectin (scintillation counting)
Protocol: The human plasma fibronectin purified by affinity chromatography described above was used in these studies. Purity was assessed by SDS-PAGE as described below. Purified fibronectin (200 μg/mL) was incubated with various concentrations (up to 500 μmol/L) of ^35S-L-homocysteine for up to 10 hours at 37° C. Unbound homocysteine was removed by precipitating the fibronectin with 5% trichloroacetic acid containing 0.5% tannic acid using transferrin as a carrier protein. The precipitated fibronectin was washed 3 times with the trichloroacetic acid/tannic acid, resuspended in 0.1 N NaOH and an aliquot subjected to scintillation counting.

[3] = biological target: T2, human transthyretin (TTR) (Homo sapiens, UniProt P02766); test: Radiolabeling and SDS-PAGE of human plasma and purified transthyretin with 35S-L-homocysteine; format: binding; settings: 0.5 mM, 5 h, label lost with β-mercaptoethanol
T2 construct: Plasma TTR is a 127 amino acid protein containing a single cysteine residue at position 10; purchased Sigma
Protocol: ^35S-L-Homocysteine was incubated with 50% human plasma in 0.05 M TES buffer (pH 7.4), or with purified human transthyretin (1 mg/ml in water) for 5 h at 37 C. Protein was then precipitated with 1.5 M perchloric acid and washed three times with 1.5 M perchloric acid. The final pellet was solubilized in SDS-PAGE sample buffer with and without reduction by β-mercaptoethanol. After treatment at 100 C. for 10 min, aliquots were subjected to analysis by SDS-PAGE using a 10% gel. The gel was stained with Coomassie blue, dried and subjected to phosphorimaging to detect ^35S- labeled proteins.
In FIG. 1, ^35S-L-Homocysteine (0.5 mM) was incubated with 50% human plasma in 0.05M TES buffer (pH 7.4) and with commercially available human transthyretin from Sigma (1 mg/mL in water) for 5 hours at […]. Following the incubation, protein was precipitated with 1.5M perchloric acid and solubilized with SDS-PAGE sample buffer. Aliquots were subjected to analysis by SDS-PAGE using a 10% gel without (see lanes 1 and 2 in FIG. 1) and with reduction by β-mercaptoethanol followed by heating at 100° C. for 10 minutes (see lanes 3 and 4 in FIG. 1). The gel was strained with Coomassie blue, dried and subjected to phosphorimaging to detect ^35S-labeled proteins. […]

T1 sequence (P02768 25-609): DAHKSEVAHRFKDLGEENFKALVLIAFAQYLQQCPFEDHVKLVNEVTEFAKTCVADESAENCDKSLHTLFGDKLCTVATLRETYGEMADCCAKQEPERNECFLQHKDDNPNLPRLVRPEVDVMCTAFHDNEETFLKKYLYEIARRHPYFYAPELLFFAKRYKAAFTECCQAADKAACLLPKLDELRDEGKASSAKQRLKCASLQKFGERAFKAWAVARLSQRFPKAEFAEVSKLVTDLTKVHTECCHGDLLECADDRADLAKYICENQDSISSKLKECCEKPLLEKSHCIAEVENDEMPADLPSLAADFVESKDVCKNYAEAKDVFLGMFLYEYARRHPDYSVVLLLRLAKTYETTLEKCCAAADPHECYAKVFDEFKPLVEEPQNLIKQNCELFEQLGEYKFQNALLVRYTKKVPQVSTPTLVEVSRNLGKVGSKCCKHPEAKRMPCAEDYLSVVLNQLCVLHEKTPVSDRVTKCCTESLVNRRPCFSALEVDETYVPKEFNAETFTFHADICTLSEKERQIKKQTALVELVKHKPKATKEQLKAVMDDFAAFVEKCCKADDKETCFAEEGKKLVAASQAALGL

Row | SMILES | binding to albumin in human plasma (albumin) | binding to fibronectin in plasma or purified fibronectin (human plasma fibronectin [1]) | time for binding to fibronectin to reach equilibrium (human plasma fibronectin [2]; 500 μmol/L homocysteine) | maximum homocysteine bound per mole of dimeric fibronectin (human plasma fibronectin [2]; up to 500 μmol/L homocysteine, 37° C.) | reaction with TTR (labeling of TTR dimer and tetramer) [3]
1 | N[C@@H](CS)C(=O)O [L-cysteine] | bound to albumin | did not bind | – | – | –
2 | N[C@@H](CCS)C(=O)O [L-homocysteine] | most of the radioactivity in the plasma was associated with albumin | bound via a disulfide linkage | ≤ 5 h | 5 mol | readily reacts with the Cys^10 position of TTR
